Values quoted from earlier work, collected in US11751566B2, “Growth regulator concentrate and use thereof” (FINE AGROCHEMICALS LIMITED, priority 2013, dated 2023).

C=C1C[C@]23C[C@@]1(O)CC[C@H]2[C@@]12C=C[C@H](O)[C@@](C)(C(=O)O1)[C@H]2[C@@H]3C(=O)O [GA3, Gibberellic acid]
solubility in organic polar solvent (solution as generally provided) (organic polar solvent, like an alcohol): 3-4 wt %

CCC(=O)C1C(=O)CC(C(=O)O)CC1=O (centres unmarked) [Prohexadione]
solubility in solvents (including water): low solubility
